Source: PubChem BioAssay (NCI)
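Cultured in 96-well plates, cells were exposed to test compound for 48 hours across five concentrations. The concentration for full growth arrest is given as TGI.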

Experiments:
Assay in all cases: NCI-60 cell line screen, 48 h
[1] = test system: SF-539 CNS
[2] = test system: HCT-116 colon
[3] = test system: DMS 114 small cell lung
[4] = test system: NCI-H460 lung
[5] = test system: HCC-2998 colon
[6] = test system: SK-OV-3 ovarian
[7] = test system: 786-0 renal
[8] = test system: UACC-257 melanoma
[9] = test system: SNB-78 CNS
[10] = test system: OVCAR-4 ovarian
[11] = test system: SF-295 CNS
[12] = test system: HOP-62 NSCLC
[13] = test system: UACC-62 melanoma
[14] = test system: K-562 leukemia
[15] = test system: CAKI-1 renal
[16] = test system: OVCAR-8 ovarian
[17] = test system: NCI-H226 lung
[18] = test system: A498 renal
[19] = test system: U251 CNS
[20] = test system: SN12C renal
[21] = test system: SR leukemia
[22] = test system: IGROV1 ovarian
[23] = test system: SK-MEL-5 melanoma
[24] = test system: TK-10 renal
[25] = test system: UO-31 renal
[26] = test system: COLO 205 colon
[27] = test system: EKVX NSCLC
[28] = test system: NCI-H522 lung
[29] = test system: HOP-18 NSCLC
[30] = test system: SNB-75 CNS
[31] = test system: HOP-92 NSCLC
[32] = test system: RXF-631 renal
[33] = test system: M19-MEL melanoma
[34] = test system: MOLT-4 leukemia
[35] = test system: KM12 colon
[36] = test system: SK-MEL-28 melanoma
[37] = test system: M14 melanoma
[38] = test system: DLD-1 colon
[39] = test system: ACHN renal
[40] = test system: XF 498 CNS
[41] = test system: SK-MEL-2 melanoma
[42] = test system: MALME-3M melanoma
[43] = test system: SNB-19 CNS
[44] = test system: LOX IMVI melanoma
[45] = test system: SF-268 CNS
[46] = test system: DMS 273 small cell lung
[47] = test system: OVCAR-5 ovarian
[48] = test system: SW-620 colon
[49] = test system: CCRF-CEM leukemia
[50] = test system: A549 NSCLC
[51] = test system: RPMI-8226 leukemia
[52] = test system: RXF 393 renal
[53] = test system: LXFL 529 NSCLC
[54] = test system: NCI-H23 lung
[55] = test system: OVCAR-3 ovarian
[56] = test system: HL-60(TB) leukemia
[57] = test system: HT29 colon
[58] = test system: KM20L2 colon
[59] = test system: HCT-15 colon

COc1ccc(-c2nc(Sc3c([N+](=O)[O-])ncn3C)n[nH]2)cc1
TGI [1]: 4.18 µM | TGI [2]: > 100 µM | TGI [3]: 6.64 µM | TGI [4]: 69.1 µM | TGI [5]: 30.2 µM | TGI [6]: > 100 µM | TGI [7]: 13.8 µM | TGI [8]: 39.2 µM | TGI [9]: > 100 µM | TGI [10]: 81.2 µM | TGI [11]: 16.5 µM | TGI [12]: 89.9 µM | TGI [13]: 11.1 µM | TGI [14]: > 100 µM | TGI [15]: > 100 µM | TGI [16]: 5.4 µM | TGI [17]: 38.1 µM | TGI [18]: 37.6 µM | TGI [19]: 5.55 µM | TGI [20]: 8.23 µM | TGI [21]: 37.3 µM | TGI [22]: 77.3 µM | TGI [23]: 6.83 µM | TGI [24]: 44.2 µM | TGI [25]: > 100 µM | TGI [26]: 3.28 µM | TGI [27]: > 100 µM | TGI [28]: 5.75 µM | TGI [29]: 5.53 µM | TGI [30]: > 100 µM | TGI [31]: 8.88 µM | TGI [32]: 22.2 µM | TGI [33]: > 100 µM | TGI [34]: 9.56 µM | TGI [35]: 4.31 µM | TGI [36]: 22 µM | TGI [37]: 4.96 µM | TGI [38]: 6.82 µM | TGI [39]: 23.1 µM | TGI [40]: 9.78 µM | TGI [41]: 4.95 µM | TGI [42]: 9.9 µM | TGI [43]: 39.3 µM | TGI [44]: 7.92 µM | TGI [45]: 21.1 µM | TGI [46]: 4.77 µM | TGI [47]: > 100 µM | TGI [48]: > 100 µM | TGI [49]: 40.2 µM | TGI [50]: > 100 µM | TGI [51]: 23.9 µM | TGI [52]: 4.28 µM | TGI [53]: 13 µM | TGI [54]: 3.97 µM

CN1CCCC2[C@@H]3CCC4=C(O)C(=O)CC[C@]4(C)C3CC[C@@]21C (stereo partly drawn)
TGI [55]: > 100 µM | TGI [1]: > 100 µM | TGI [2]: > 100 µM | TGI [56]: > 100 µM | TGI [3]: > 100 µM | TGI [4]: > 100 µM | TGI [6]: > 100 µM | TGI [57]: > 100 µM | TGI [7]: > 100 µM | TGI [8]: > 100 µM | TGI [10]: > 100 µM | TGI [11]: > 100 µM | TGI [12]: > 100 µM | TGI [13]: > 100 µM | TGI [14]: > 100 µM | TGI [15]: > 100 µM | TGI [16]: > 100 µM | TGI [17]: > 100 µM | TGI [18]: > 100 µM | TGI [19]: > 100 µM | TGI [20]: > 100 µM | TGI [22]: > 100 µM | TGI [23]: > 100 µM | TGI [24]: > 100 µM | TGI [25]: > 100 µM | TGI [26]: > 100 µM | TGI [27]: > 100 µM | TGI [28]: > 100 µM | TGI [29]: > 100 µM | TGI [30]: > 100 µM | TGI [31]: > 100 µM | TGI [32]: > 100 µM | TGI [58]: > 100 µM | TGI [59]: > 100 µM | TGI [34]: > 100 µM | TGI [35]: > 100 µM | TGI [36]: > 100 µM | TGI [37]: > 100 µM | TGI [39]: > 100 µM | TGI [40]: > 100 µM | TGI [41]: > 100 µM | TGI [42]: > 100 µM | TGI [43]: > 100 µM | TGI [44]: > 100 µM | TGI [45]: > 100 µM | TGI [46]: > 100 µM | TGI [47]: > 100 µM | TGI [48]: > 100 µM | TGI [49]: > 100 µM | TGI [50]: > 100 µM | TGI [51]: > 100 µM | TGI [52]: > 100 µM | TGI [53]: > 100 µM | TGI [54]: > 100 µM
